ChEMBL document CHEMBL3407464, “Novel 5-HT6 receptor antagonists/D2 receptor partial agonists targeting behavioral and psychological symptoms of dementia” (Eur J Med Chem, 2015)

Experiments:
D(2) dopamine receptor = D(2) dopamine receptor (Homo sapiens, UniProt P14416); experiment: biochemical
[1] = molecular target: 5-hydroxytryptamine receptor 6 (Homo sapiens, UniProt P50406); experiment: biochemical
Sequence of 5-hydroxytryptamine receptor 6 (P50406 whole entry): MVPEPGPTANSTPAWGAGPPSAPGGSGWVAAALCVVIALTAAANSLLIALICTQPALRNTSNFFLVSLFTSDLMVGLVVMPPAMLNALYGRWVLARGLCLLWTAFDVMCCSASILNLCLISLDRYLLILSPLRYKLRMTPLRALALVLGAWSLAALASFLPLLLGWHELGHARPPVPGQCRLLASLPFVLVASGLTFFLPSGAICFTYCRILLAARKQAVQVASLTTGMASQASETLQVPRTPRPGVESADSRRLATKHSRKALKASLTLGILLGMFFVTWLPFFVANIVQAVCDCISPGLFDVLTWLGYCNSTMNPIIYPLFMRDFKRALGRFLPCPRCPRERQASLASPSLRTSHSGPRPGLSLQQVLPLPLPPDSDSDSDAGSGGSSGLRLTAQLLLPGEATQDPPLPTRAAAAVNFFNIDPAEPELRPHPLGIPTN

Sequence of D(2) dopamine receptor (P14416 whole entry): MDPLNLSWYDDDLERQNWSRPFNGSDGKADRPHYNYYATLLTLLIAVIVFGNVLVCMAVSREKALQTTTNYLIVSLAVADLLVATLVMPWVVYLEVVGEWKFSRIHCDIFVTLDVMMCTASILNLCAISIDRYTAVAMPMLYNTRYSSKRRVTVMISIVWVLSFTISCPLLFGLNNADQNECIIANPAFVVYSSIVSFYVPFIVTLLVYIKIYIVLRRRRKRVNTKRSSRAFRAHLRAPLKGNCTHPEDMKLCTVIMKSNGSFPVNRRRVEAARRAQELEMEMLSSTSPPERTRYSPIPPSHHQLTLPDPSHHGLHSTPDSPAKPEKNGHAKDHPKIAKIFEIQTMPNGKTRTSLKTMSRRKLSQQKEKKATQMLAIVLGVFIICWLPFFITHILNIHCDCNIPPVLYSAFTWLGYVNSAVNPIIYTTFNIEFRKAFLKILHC

| Structure (SMILES) | Ki (D(2) dopamine receptor) | Ki [1] |
| --- | --- | --- |
| O=C1CCc2ccc(OCCCCN3CCC(c4cn(Cc5ccccc5)c5ccccc45)CC3)cc2N1 | 0.0048 µM | 0.15 µM |
| NC(=O)c1ccccc1OCCCN1CCC(c2cn(S(=O)(=O)c3ccccc3)c3ccccc23)CC1 | 0.062 µM | 0.057 µM |
| NC(=O)c1ccccc1OCCCN1CC=C(c2cn(S(=O)(=O)c3ccccc3)c3ccccc23)CC1 | 0.16 µM | 0.033 µM |
| O=C1CCc2ccc(OCCCCN3CCN(c4cccc5c4ccn5Cc4ccc(F)cc4)CC3)cc2N1 | 0.012 µM | 0.1 µM |
| O=C1CCc2ccc(OCCCCN3CCN(c4cccc5c4ccn5Cc4ccccc4F)CC3)cc2N1 | 0.011 µM | 0.045 µM |
| O=C1CCc2ccc(OCCCCNCCc3cn(Cc4ccccc4)c4ccccc34)cc2N1 | 0.07 µM | 0.15 µM |
| NC(=O)c1ccccc1OCCCN1CCN(c2cccc3c2ccn3Cc2ccc(F)cc2)CC1 | 0.044 µM | 0.083 µM |
| O=C1CCc2ccc(OCCCCN3CCC(c4cn(S(=O)(=O)c5ccccc5)c5ccccc45)CC3)cc2N1 | 0.014 µM | 0.14 µM |
| NC(=O)c1ccccc1OCCCNCCc1cn(Cc2ccccc2)c2ccccc12 | 0.27 µM | 0.68 µM |
| NC(=O)c1ccccc1OCCCNCCc1cn(S(=O)(=O)c2ccccc2)c2ccccc12 | 0.18 µM | 0.062 µM |
| NC(=O)c1ccccc1OCCCN1CC=C(c2cn(Cc3ccccc3)c3ccccc23)CC1 | 0.031 µM | 0.59 µM |
| O=C1CCc2ccc(OCCCCNCCc3cn(S(=O)(=O)c4ccccc4)c4ccccc34)cc2N1 | 0.12 µM | 0.052 µM |
| NC(=O)c1ccccc1OCCCN1CCC(c2cn(Cc3ccccc3)c3ccccc23)CC1 | 0.029 µM | 0.49 µM |
| O=C1CCc2ccc(OCCCCN3CC=C(c4cn(S(=O)(=O)c5ccccc5)c5ccccc45)CC3)cc2N1 | 0.04 µM | 0.052 µM |

Stronger by Ki [1], values ahead:

| Ki (D(2) dopamine receptor) | Ki [1] | Structure (SMILES) |
| --- | --- | --- |
| 0.12 µM | 0.011 µM | CC(C)Oc1ccccc1OCCCCN1CCN(c2cccc3c2ccn3S(=O)(=O)c2ccccc2)CC1 |
|  | 0.023 µM | NC(=O)c1ccccc1OCCCN1CCN(c2cccc3c2ccn3Cc2ccccc2F)CC1 |
| 0.023 µM | 0.0023 µM | O=C1CCc2ccc(OCCCN3CCN(c4cccc5c4ccn5S(=O)(=O)c4ccccc4)CC3)cc2N1 |
| 0.22 µM | 0.0038 µM | O=S(=O)(c1ccccc1)n1ccc2c(N3CCN(CCCOc4ccc5ccoc5c4)CC3)cccc21 |
| 0.047 µM | 0.0069 µM | O=S(=O)(c1ccccc1)n1ccc2c(N3CCN(CCCCOc4ccc(F)cc4)CC3)cccc21 |
| 0.062 µM | 0.016 µM | O=S(=O)(c1ccccc1)n1ccc2c(N3CCN(CCCCOc4ccccc4)CC3)cccc21 |
| 0.067 µM | 0.0054 µM | O=S(=O)(c1ccccc1)n1ccc2c(N3CCN(CCCOc4ccc(F)cc4)CC3)cccc21 |
| 0.095 µM | 0.024 µM | NC(=O)c1ccccc1OCCCN1CCN(c2cccc3c2ccn3Cc2ccccc2)CC1 |
| 0.078 µM | 0.0028 µM | NC(=O)c1ccccc1OCCCCN1CCN(c2cccc3c2ccn3S(=O)(=O)c2ccccc2)CC1 |
| 0.076 µM | 0.0126 µM | NC(=O)c1ccccc1OCCCN1CCN(c2cccc3c2ccn3Cc2cccc(Cl)c2)CC1 |
| 0.11 µM | 0.0017 µM | CC(C)Oc1ccccc1OCCCN1CCN(c2cccc3c2ccn3S(=O)(=O)c2ccccc2)CC1 |
| 0.29 µM | 0.0076 µM | O=S(=O)(c1ccccc1)n1ccc2c(N3CCN(CCCOc4ccccc4)CC3)cccc21 |
| 0.073 µM | 0.022 µM | O=C1CCc2ccc(OCCCCN3CC=C(c4cn(Cc5ccccc5)c5ccccc45)CC3)cc2N1 |
| 0.045 µM | 0.0099 µM | NC(=O)c1ccccc1OCCCN1CCN(c2cccc3c2ccn3Cc2cccc(F)c2)CC1 |
